From US12391641B2, “Prostaglandin EP4 receptor antagonist compounds” (NXERA PHARMA UK LIMITED, priority 2019, dated 2025)

Target: T1, Human prostaglandin E2 receptor 4 (EP4) (Homo sapiens, UniProt P35408)
T1 construct: expressed in transfected cells; host or cells: HEK293 cells transduced with EP4 BacMam virus
Experiment: cAMP Gs Functional Assay (HTRF cAMP dynamic-2), antagonism of PGE2
Assay type: cell-based
Conditions: HEK293 cells transfected with EP4 BacMam virus; PGE2 challenge at EC80 (7 nM); pIC50 converted to functional pKb with a modified Cheng Prussoff equation; read-out: Human EP4 fpKb (converted)
Method: Cloning, Baculovirus generation, large scale infection of HEK293 cells and membrane preparation: Human prostaglandin E2 receptor 4 (EP4) was cloned into pBacMam expression vector (GeneScript, UK). Transposition of EP4 DNA was performed using Invitrogen's Bac-to-Bac Baculovirus Expression Systems. P0 baculovirus was generated by transfecting SF9 Cells with bacmid DNA using Cellfectin II transfection reagent (ThermoFisher Scientific, UK, catalog number 10362-100). Following P0 generation P1 virus was then generated ready for large scale infection and membrane preparation. HEK293 cells were grown in DMEM+Glutamax, supplemented with 10% heat inactivated fetal bovine serum (FBS). Cells were infected at a seeding density of 3.5 million cells/mL in 500 cm^3 flasks at 5% v/v EP4 Bacman. Expression was carried out over 36 hr period at 37° C. with 5% CO2. The cells were removed using PBS and a cell scrapper. The cell culture was centrifuged at 2500 RPM for 10 mins at 4° C. The supernatant was then poured off and the pellet stored at −80° C. The pellet was defrosted and re-suspended in 15 mL of homogenising buffer (20 mM HEPES, 10 mM EDTA, pH 7.4). Then homogenised in mechanical homogeniser (VMR) for 10 seconds. The membrane was centrifuged in centrifuge tubes at 40,000 g for 15 mins at 4° C. The supernatant was poured away and re-suspended in 15 mL of homogenising buffer. Homogenised for 20 seconds. The membrane was centrifuged at 40,000 g for 45 mins at 4° C. The membrane was re-suspended in 3 mL of storage buffer (20 mM HEPES, 0.1 mM EDTA, pH 7.4) mixing well. The resulting membranes were then stored at −80° C.
cAMP Gs Functional Assay: cAMP production following EP4 receptor activation was determined using the Homogeneous Time-Resolved Fluorescence (HTRF) cAMP dynamic-2 assay (Cisbio, France). HEK293 cells were transfected using a 0.5% EP4 Bacman virus for 36 hours, before dissociating the cells, and freezing at […].
On the day of testing, increasing concentration of test compounds, alongside positive controls (1 uM ONO-AE3-208) and negative control (DMSO (Sigma-Aldrich, UK) were added to a ProxiPlate-384 Plus, White 384-shallow well Mircoplate, (PerkinElmer, USA) using the ECHO dispense.
Cells were defrosted in a water bath and resuspended in DMEM supplemented with 10% FBS before centrifuging at 1200 RPM for 5 mins to form a pellet. The pellet was resuspended in assay buffer (DMEM+0.5 mM IBMX (Tocris, Abingdon, UK, Catalog Number 2845)) to a 1×10^6 cells/mL. Cell suspension, for a final assay concentration of 5000 cell/well was added using the multidrop to the pre-dispensed assay plate. The plate was then incubated at 37° C. for 30 mins, with 5% CO2. After incubation, EC80 concentration (7 nM) of PGE2 (EP4 agonist) was added to the plate. In parallel, a PGE2 dose-response curve was dispense to a separate plate. Assay buffer was then dispensed on top. The cAMP production was determined as manufacturer's instructions, before plates were read on a PheraStar fluorescence plate reader (BMG LabTech, Germany).
The pIC50 was converted to a functional pKb value using a modified Cheng Prussoff equation where Kd=agonist EC50 and Lhot=agonist challenge concentration;

T1 sequence (P35408 whole entry): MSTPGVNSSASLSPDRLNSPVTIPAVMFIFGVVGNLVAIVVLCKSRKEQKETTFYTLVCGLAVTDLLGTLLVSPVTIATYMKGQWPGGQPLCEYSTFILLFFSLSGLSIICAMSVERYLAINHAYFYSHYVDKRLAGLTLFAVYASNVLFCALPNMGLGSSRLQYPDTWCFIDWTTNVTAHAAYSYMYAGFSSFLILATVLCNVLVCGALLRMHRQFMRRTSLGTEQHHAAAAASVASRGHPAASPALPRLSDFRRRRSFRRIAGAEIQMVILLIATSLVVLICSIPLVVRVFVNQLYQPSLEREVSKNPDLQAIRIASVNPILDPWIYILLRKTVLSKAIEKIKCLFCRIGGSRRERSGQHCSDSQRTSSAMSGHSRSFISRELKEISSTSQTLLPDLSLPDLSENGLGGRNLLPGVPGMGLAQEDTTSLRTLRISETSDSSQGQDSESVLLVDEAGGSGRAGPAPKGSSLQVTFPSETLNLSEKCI

Row | Structure (SMILES) | Ki [nM]
1 | CC(C)[C@@H](OCc1ccc(C(F)(F)F)cc1)C(=O)N[C@@H](C)c1ccc(-c2nnn[nH]2)cc1 [Example 43, (R)—N—((S)-1-(4-(1H-tetrazol-5-yl)phenyl)ethyl)-3-methyl-2-((4-(trifluoromethyl)benzyl)oxy)butanamide] | 0.501
2 | CC(C)[C@@H](OCc1ccc(Cl)cc1)C(=O)N[C@@H](C)c1ccc(C(=O)O)cc1 [Example 11, 4-((S)-1-((R)-2-((4-chlorobenzyl)oxy)-3-methylbutanamido)ethyl)benzoic acid] | 3.16
3 | CC(C)[C@@H](OCc1cccc(OC(F)F)c1)C(=O)NC1(c2ccc(-c3nnn[nH]3)cc2)CC1 [Example 72, (R)—N-(1-(4-(1H-tetrazol-5-yl)phenyl)cyclopropyl)-2-((3-(difluoromethoxy)benzyl)oxy)-3-methylbutanamide] | 0.589
4 | O=C(O)c1ccc(C2(NC(=O)[C@@H](OCc3cccc(OC(F)F)c3)C3CCC3)CC2)cc1 [Example 100, (S)-4-(1-(2-cyclobutyl-2-((3-(difluoromethoxy)benzyl)oxy)acetamido)cyclopropyl)benzoic acid] | 15.5
5 | CC(C)[C@@H](OCc1ccnc(OC(F)F)c1)C(=O)N[C@@H](C)c1ccc(C(=O)O)cc1 [Example 74, 4-((S)-1-((R)-2-((2-(difluoromethoxy)pyridin-4-yl)methoxy)-3-methylbutanamido)ethyl)benzoic acid] | 0.447
6 | CC(C)[C@@H](OCc1ccc(F)c(Cl)c1)C(=O)NC1(c2ccc(C(=O)O)cc2)CC1 [Example 78, (R)-4-(1-(2-((3-chloro-4-fluorobenzyl)oxy)-3-methylbutanamido)cyclopropyl)benzoic acid] | > 20900
7 | CC(C)[C@@H](OCc1ccc(C2CC2)cc1)C(=O)N[C@@H](C)c1ccc(C(=O)O)cc1 [Example 30, 4-((S)-1-((R)-2-((4-cyclopropylbenzyl)oxy)-3-methylbutanamido)ethyl)benzoic acid] | 5.37
8 | COc1ccc(COC(C(=O)N[C@@H](C)c2ccc(C(=O)O)cc2)C(C)C)cc1 (mixture of isomers) [Example 6, 4-((1S)-1-(2-((4-methoxybenzyl)oxy)-3-methylbutanamido)ethyl)benzoic acid] | 28.2
9 | CC(C)[C@@H](OCc1ccc(C(F)(F)F)cc1)C(=O)NC(C)(C)c1ccc(C(=O)O)cc1 [Example 64, (R)-4-(2-(3-methyl-2-((4-(trifluoromethyl)benzyl)oxy)butanamido)propan-2-yl)benzoic acid] | 47.9
10 | CC(O[C@@H](C(=O)N[C@@H](C)c1ccc(C(=O)O)cc1)C(C)C)c1ccc(F)cc1 (mixture of isomers) [Example 46, 4-((1 S)-1-((2R)-2-(1-(4-fluorophenyl)ethoxy)-3-methylbutanamido)ethyl)benzoic acid] | 7.24
11 | CC(C)[C@@H](OCc1ccc(C(F)(F)F)nc1)C(=O)NC1(c2ccc(C(=O)O)cc2)CC1 [Example 76, (R)-4-(1-(3-methyl-2-((6-(trifluoromethyl)pyridin-3-yl)methoxy)butanamido)cyclopropyl)benzoic acid] | 33.1
12 | CC(C)[C@H](OCc1ccc(C(F)(F)F)cc1)C(=O)N[C@@H](C)c1ccc(C(=O)O)cc1 [Example 16, 4-((S)-1-((S)-3-methyl-2-((4-(trifluoromethyl)benzyl)oxy)butanamido)ethyl)benzoic acid] | 178
13 | CC(C)[C@@H](OCc1cccc(CO)c1)C(=O)N[C@@H](C)c1ccc(C(=O)O)cc1 [Example 45, 4-((S)-1-((R)-2-((3-(hydroxymethyl)benzyl)oxy)-3-methylbutanamido)ethyl)benzoic acid] | 10
14 | CC(C)[C@@H](OCc1cccc(S(=O)(=O)C2CC2)c1)C(=O)NC1(c2ccc(C(=O)O)cc2)CC1 [Example 91, (R)-4-(1-(2-((3-(cyclopropylsulfonyl)benzyl)oxy)-3-methylbutanamido)cyclopropyl)benzoic acid] | 20
15 | CC(C)[C@@H](OCc1ccc(C#N)cc1)C(=O)N[C@@H](C)c1ccc(C(=O)O)cc1 [Example 21, 4-((S)-1-((R)-2-((4-cyanobenzyl)oxy)-3-methylbutanamido)ethyl)benzoic acid] | 33.1
16 | CC(C)[C@@H](OCc1ccc(C(F)(F)F)cn1)C(=O)NC1(c2ccc(C(=O)O)cc2)CC1 [Example 75, (R)-4-(1-(3-methyl-2-((5-(trifluoromethyl)pyridin-2-yl)methoxy)butanamido)cyclopropyl)benzoic acid] | 69.2
17 | CC(C)[C@@H](OCc1ccc(S(C)(=O)=O)cc1)C(=O)N[C@@H](C)c1ccc(C(=O)O)cc1 [Example 10, 4-((S)-1-((R)-3-methyl-2-((4-(methylsulfonyl)benzyl)oxy)butanamido)ethyl)benzoic acid] | 20.4
18 | CC(C)[C@@H](OCc1ccc(C(F)(F)F)cc1)C(=O)NCc1ccc(C(=O)O)cc1 [Example 59, (R)-4-((3-methyl-2-((4-(trifluoromethyl)benzyl)oxy)butanamido)methyl)benzoic acid] | 9.77
19 | CC(C)[C@@H](OCc1ccc(S(F)(F)(F)(F)F)cc1)C(=O)N[C@@H](C)c1ccc(C(=O)O)cc1 [Example 26, 4-((S)-1-((R)-3-methyl-2-((4-(pentafluoro-λ^6-sulfaneyl)benzyl)oxy)butanamido)ethyl)benzoic acid] | 27.5
20 | CC(C)[C@@H](OCc1ccc(F)c(C2CC2)c1)C(=O)N[C@@H](C)c1ccc(C(=O)O)cc1 [Example 85, 4-((S)-1-((R)-2-((3-cyclopropyl-4-fluorobenzyl)oxy)-3-methylbutanamido)ethyl)benzoic acid] | 0.055
21 | O=C(O)c1ccc(C2(NC(=O)C(OCc3ccc(F)c(F)c3)C3CCC3)CC2)cc1 (stereo not shown) [Example 97, 4-(1-(2-cyclobutyl-2-((3,4-difluorobenzyl)oxy)acetamido)cyclopropyl)benzoic acid] | 12.6
22 | CC(C)[C@@H](OCc1cccc(C(F)(F)F)c1)C(=O)N[C@@H](C)c1ccc(C(=O)O)cc1 [Example 15, 4-((S)-1-((R)-3-methyl-2-((3-(trifluoromethyl)benzyl)oxy)butanamido)ethyl)benzoic acid] | 0.288
23 | CC(C)[C@H](OCc1cccc(S(C)(=O)=O)c1)C(=O)N[C@@H](C)c1ccc(C(=O)O)cc1 [Example 7, 4-((S)-1-((S)-3-methyl-2-((3-(methylsulfonyl)benzyl)oxy)butanamido)ethyl)benzoic acid] | > 195
24 | CC(C)[C@@H](OCc1ccc(C(F)(F)F)cn1)C(=O)N[C@@H](C)c1ccc(C(=O)O)cc1 [Example 25, 4-((S)-1-((R)-3-methyl-2-((5-(trifluoromethyl)pyridin-2-yl)methoxy)butanamido)ethyl)benzoic acid] | 13.8
25 | CC(C)C(OCc1cccc(C2COC2)c1)C(=O)NC1(c2ccc(C(=O)O)cc2)CC1 (single isomer, unassigned) [Example 86, 4-(1-(3-methyl-2-((3-(oxetan-3-yl)benzyl)oxy)butanamido)cyclopropyl)benzoic acid] | 0.447
26 | COCc1cccc(CO[C@@H](C(=O)N[C@@H](C)c2ccc(C(=O)O)cc2)C(C)C)c1 [Example 40, 4-((S)-1-((R)-2-((3-(methoxymethyl)benzyl)oxy)-3-methylbutanamido)ethyl)benzoic acid] | 1.66
27 | CC(C)[C@@H](OCc1ccc(F)c(F)c1)C(=O)NC1(c2ccc(-c3nnn[nH]3)cc2)CC1 [Example 71, (R)—N-(1-(4-(1H-tetrazol-5-yl)phenyl)cyclopropyl)-2-((3,4-difluorobenzyl)oxy)-3-methylbutanamide] | 0.372
28 | CC(C)[C@@H](OCc1ccc(F)c(S(C)(=O)=O)c1)C(=O)N[C@@H](C)c1ccc(C(=O)O)cc1 [Example 35, 4-((S)-1-((R)-2-((4-fluoro-3-(methylsulfonyl)benzyl)oxy)-3-methylbutanamido)ethyl)benzoic acid] | 7.41
